Test results published in ChEMBL document CHEMBL5584244, “Discovery of novel pyrrolo[2,1-c][1,4]benzodiazepine-3,11-dione (PBD) derivatives as selective HDAC6 inhibitors for the efficient treatment of idiopathic pulmonary fibrosis (IPF) in vitro and in vivo” (Eur J Med Chem, 2024).
Calls of active or inactive are those of the source. The calls are words filed in the database; no cut-off is given here.

How the values were obtained:
Mus musculus [1] = test: Anti-pulmonary fibrosis activity in bleomycin-induced C57BL/6 mouse model of pulmonary fibrosis assessed as decrease in thickening of the alveolar wall in lung at 50 to 100 mg/kg, ip for 3 weeks by Masson trichrome staining based microscopic analysis; type: functional, organism-based; details: dose 50-100 mg/kg
[2] = Stability of compound in human plasma assessed as remaining parent compound at 2 uM incubated for 120 mins by LC-MS/MS analysis; type: ADME, cell-free; details: read-out: Stability
Histone deacetylase 11 = target: T1, Histone deacetylase 11 (Homo sapiens, UniProt Q96DB2); test: Inhibition of recombinant human full length HDAC11 using Boc-Lys (Tfa)-AMC as substrate incubated for 120 mins by fluorescence analysis
T1 sequence (Q96DB2 whole entry): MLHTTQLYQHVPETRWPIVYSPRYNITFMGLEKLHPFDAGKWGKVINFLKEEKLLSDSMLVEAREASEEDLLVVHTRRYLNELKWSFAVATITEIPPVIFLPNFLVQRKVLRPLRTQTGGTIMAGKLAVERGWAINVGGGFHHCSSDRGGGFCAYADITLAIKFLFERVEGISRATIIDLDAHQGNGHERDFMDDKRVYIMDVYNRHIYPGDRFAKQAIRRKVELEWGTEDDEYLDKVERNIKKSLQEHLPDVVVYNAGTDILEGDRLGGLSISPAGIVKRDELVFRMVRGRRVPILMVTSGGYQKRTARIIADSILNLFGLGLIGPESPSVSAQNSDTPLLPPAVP

Mus musculus [3] = test: Anti-pulmonary fibrosis activity in bleomycin-induced ip dosed C57BL/6 mouse model of pulmonary fibrosis assessed as inhibition of Smad2 protein phosphorylation level in lung for 3 weeks by immunohistochemical analysis; type: functional, organism-based; details: dose 50-100 mg/kg
HELF [4] = test: Anti-pulmonary fibrosis activity against TGF-beta1-induced HELF cells assessed as reduction in COL1A1 protein expression incubated for 48 hrs by Western blot analysis; type: functional, cell-based; details: Homo sapiens, dose 2.5-10 µM
Mus musculus [5] = test: Anti-pulmonary fibrosis activity in bleomycin-induced C57BL/6 mouse model of pulmonary fibrosis assessed as decrease in inflammatory cell infiltration in lung at 50 to 100 mg/kg, ip for 3 weeks by H and E staining based fluorescence microscopic analysis; type: functional, organism-based; details: dose 50-100 mg/kg
Mus musculus [6] = test: Anti-pulmonary fibrosis activity in bleomycin-induced ip dosed C57BL/6 mouse model of pulmonary fibrosis assessed as inhibition of alpha-SMA protein expression level in lung for 3 weeks by immunohistochemical analysis; type: functional, organism-based; details: dose 50-100 mg/kg
[7] = target: Mothers against decapentaplegic homolog 3 (Homo sapiens) (UniProt P84022); test: Inhibition of TGF-beta1-induced Smad3 protein phosphorylation level in HELF cells incubated for 48 hrs by Western blot analysis; type: cell-based; details: dose 2.5-10 µM
Mothers against decapentaplegic homolog 3 (Homo sapiens), sequence (P84022 2-425 limits assumed): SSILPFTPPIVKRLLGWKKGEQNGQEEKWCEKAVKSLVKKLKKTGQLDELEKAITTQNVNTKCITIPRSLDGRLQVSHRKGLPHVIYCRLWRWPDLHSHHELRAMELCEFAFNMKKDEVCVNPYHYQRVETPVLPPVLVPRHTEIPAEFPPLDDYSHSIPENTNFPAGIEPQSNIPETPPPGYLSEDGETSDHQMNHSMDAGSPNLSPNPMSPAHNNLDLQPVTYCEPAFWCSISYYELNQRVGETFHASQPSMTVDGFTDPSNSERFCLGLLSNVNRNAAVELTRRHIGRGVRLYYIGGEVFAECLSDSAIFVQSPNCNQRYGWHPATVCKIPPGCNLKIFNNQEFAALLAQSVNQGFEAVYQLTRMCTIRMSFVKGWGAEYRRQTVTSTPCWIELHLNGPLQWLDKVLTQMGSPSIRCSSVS

Histone deacetylase 2 = Histone deacetylase 2 (Homo sapiens, UniProt Q92769); test: Inhibition of recombinant human full length HDAC2 using Boc-Lys (Ac)-AMC as substrate incubated for 120 mins by fluorescence analysis
Histone deacetylase 2, sequence (Q92769 whole entry): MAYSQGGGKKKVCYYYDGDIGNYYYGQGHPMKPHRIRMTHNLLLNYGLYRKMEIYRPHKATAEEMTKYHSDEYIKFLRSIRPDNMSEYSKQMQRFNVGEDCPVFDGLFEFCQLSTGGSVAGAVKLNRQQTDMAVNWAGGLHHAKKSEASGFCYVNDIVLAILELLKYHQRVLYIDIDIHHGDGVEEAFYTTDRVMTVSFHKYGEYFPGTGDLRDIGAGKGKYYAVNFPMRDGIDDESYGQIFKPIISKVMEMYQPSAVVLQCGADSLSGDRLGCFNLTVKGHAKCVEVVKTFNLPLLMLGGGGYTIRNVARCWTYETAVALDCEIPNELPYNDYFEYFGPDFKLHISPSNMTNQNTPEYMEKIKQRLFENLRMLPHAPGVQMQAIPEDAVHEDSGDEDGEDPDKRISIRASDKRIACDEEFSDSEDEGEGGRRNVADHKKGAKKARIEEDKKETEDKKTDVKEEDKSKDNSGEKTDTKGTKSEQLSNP

Mus musculus [8] = test: Anti-pulmonary fibrosis activity in bleomycin-induced ip dosed C57BL/6 mouse model of pulmonary fibrosis assessed as inhibition of Smad3 protein phosphorylation level in lung at for 3 weeks by immunohistochemical analysis; type: functional, organism-based; details: dose 50-100 mg/kg
HELF [9] = test: Antifibrotic activity against TGF-beta1-induced HELF cells assessed as reduction in viability after 48 hrs by MTT assay; type: functional, cell-based; details: Homo sapiens, dose 2.5-10 µM
[10] = target: T2, Protein deacetylase HDAC6 (Homo sapiens) (UniProt Q9UBN7); test: Inhibition of HDAC6 in TGF-beta1-induced HELF cells assessed as upregulation of acetylated histone H3 level at 2.5 to 10 uM by Western blot analysis; type: cell-based; details: dose 2.5-10 µM
T2 sequence (whole entry): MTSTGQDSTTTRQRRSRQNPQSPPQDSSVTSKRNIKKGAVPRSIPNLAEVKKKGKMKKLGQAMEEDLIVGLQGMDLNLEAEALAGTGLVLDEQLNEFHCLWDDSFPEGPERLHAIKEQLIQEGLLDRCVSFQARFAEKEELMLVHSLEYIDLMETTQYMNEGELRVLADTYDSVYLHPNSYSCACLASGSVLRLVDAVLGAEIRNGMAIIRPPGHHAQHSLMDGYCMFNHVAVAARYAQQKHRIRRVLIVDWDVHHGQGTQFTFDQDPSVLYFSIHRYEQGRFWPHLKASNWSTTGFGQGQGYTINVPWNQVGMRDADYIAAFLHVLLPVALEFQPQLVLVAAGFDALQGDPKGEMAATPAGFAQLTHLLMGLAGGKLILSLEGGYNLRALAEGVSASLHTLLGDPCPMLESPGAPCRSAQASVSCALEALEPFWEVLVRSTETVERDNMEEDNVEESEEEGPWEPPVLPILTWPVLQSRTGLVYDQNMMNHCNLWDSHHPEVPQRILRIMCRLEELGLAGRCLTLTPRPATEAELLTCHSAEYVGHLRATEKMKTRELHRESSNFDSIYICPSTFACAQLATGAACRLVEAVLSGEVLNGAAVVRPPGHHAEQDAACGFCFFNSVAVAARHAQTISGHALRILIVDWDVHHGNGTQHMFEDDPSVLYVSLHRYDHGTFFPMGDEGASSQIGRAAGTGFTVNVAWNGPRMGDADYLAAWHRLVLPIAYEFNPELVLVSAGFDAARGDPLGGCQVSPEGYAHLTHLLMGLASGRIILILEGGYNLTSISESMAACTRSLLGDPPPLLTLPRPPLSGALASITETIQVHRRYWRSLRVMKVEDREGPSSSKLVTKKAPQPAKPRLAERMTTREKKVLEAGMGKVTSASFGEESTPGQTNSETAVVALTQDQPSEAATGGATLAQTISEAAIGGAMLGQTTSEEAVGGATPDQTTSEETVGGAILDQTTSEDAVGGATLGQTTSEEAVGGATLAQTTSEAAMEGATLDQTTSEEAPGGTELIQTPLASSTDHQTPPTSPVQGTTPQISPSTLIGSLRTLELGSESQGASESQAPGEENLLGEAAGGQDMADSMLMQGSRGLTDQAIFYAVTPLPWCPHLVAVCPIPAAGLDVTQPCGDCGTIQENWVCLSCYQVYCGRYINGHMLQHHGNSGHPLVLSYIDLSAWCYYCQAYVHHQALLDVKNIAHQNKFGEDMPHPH

Homo sapiens = organism: Homo sapiens; test: Selectivity index, ratio IC50 for C-terminal His6/Flag-tagged recombinant human full length HDAC1 to IC50 for inhibition of recombinant human full length HDAC6
[11] = Half life in human plasma at 2 uM by LC-MS/MS analysis; type: ADME, cell-free
Mus musculus [12] = test: Anti-pulmonary fibrosis activity in bleomycin-induced C57BL/6 mouse model of pulmonary fibrosis assessed as decrease in collapse of the alveolar cavity in lung at 50 to 100 mg/kg, ip for 3 weeks by Masson trichrome staining based microscopic analysis; type: functional, organism-based; details: dose 50-100 mg/kg
[13] = target: Mothers against decapentaplegic homolog 2 (Homo sapiens) (UniProt Q15796); test: Inhibition of TGF-beta1-induced Smad2 protein phosphorylation level in HELF cells incubated for 48 hrs by Western blot analysis; type: cell-based; details: dose 2.5-10 µM
Mothers against decapentaplegic homolog 2 (Homo sapiens), sequence (Q15796 whole entry): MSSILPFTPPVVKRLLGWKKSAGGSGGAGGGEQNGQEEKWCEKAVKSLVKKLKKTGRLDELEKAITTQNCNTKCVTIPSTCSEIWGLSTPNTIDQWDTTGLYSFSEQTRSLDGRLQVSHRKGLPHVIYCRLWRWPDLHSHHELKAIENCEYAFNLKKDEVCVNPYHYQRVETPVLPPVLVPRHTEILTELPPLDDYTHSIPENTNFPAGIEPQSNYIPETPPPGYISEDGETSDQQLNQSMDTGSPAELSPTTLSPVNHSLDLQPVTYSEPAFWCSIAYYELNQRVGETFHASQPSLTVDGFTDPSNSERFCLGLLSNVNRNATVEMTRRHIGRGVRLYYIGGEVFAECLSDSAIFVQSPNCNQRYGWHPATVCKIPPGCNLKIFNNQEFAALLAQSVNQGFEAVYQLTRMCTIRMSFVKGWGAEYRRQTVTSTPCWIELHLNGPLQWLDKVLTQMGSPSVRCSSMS

CC(=O)O.O=C(NO)c1ccc(CN2C(=O)[C@@H]3CCCN3Cc3ccccc32)cc1
Activity (Mus musculus [1]): inactive
remaining at 2 h, 2 µM [2]: 92.3%
IC50 (Histone deacetylase 11): > 50 µM
inhibition (Mus musculus [3]): Dose-Dependent Effect
Activity (HELF [4]): Dose-Dependent Effect
Activity (Mus musculus [5]): Active
inhibition (Mus musculus [6]): Dose-Dependent Effect
inhibition [7]: Dose-Dependent Effect
IC50 (Histone deacetylase 2): 3.14 µM
inhibition (Mus musculus [8]): Dose-Dependent Effect
Activity (HELF [9]): Dose-Dependent Effect
inhibition [10]: inactive
Ratio IC50 (Homo sapiens): 97.9
half-life at 2 µM [11]: > 4.82 h
Activity (Mus musculus [12]): inactive
inhibition [13]: Dose-Dependent Effect
